Source: patent US20210338615A1, “Inhibition of Acetyl-CoA Metabolism for Treatment and Prevention of Immune System Diseases and Disorders” (Memorial Sloan Kettering Cancer Center, priority 2016, published 2021)

How the values were obtained:
[1] = tested on: CD4+ T cells differentiated under Th1 conditions; assay: IFN-γ expression in CD4+ T cells differentiated under Th1 conditions (intracellular staining, flow cytometry); assay type: cell-based, mouse; conditions: for IFN-γ expression: WT naïve CD4+ T cells under Th1 conditions, inhibitor added for another 24 h, re-stimulated with PMA and ionomycin 4 h; for IFN-γ expression in KO T cells: LDHA-deficient (KO) Th1 cells, 20 mM sodium acetate or 30 nM TSA for another 24 h, PMA and ionomycin 4 h
Protocol: Panels D and E show naïve WT or KO CD4^+ T cells differentiated under Th1 conditions for 3 days, and either left untreated or supplemented with 20 mM sodium acetate for another 24 h.
(§1) IFN-γ expression was determined by intracellular staining. […] Cell viability was determined by LIVE/DEAD staining. […] Data represent mean±SD, n=3. […] Data represent mean±SD, n=3. Two-tailed unpaired t-test, **P≤0.01. […] Data represent mean±SD, n=4.
Naïve CD4^+ T cells isolated from wild-type mice were differentiated under Th1 conditions for 3 days. DMSO or indicated concentration of Fx11 was added to the cell culture for another 24 h, with or without 20 mM sodium acetate. […] IFN-γ expression was determined by intracellular staining. Representative plots (panel A) and quantification (panel B) are shown.
(§2) Cells from thymi, spleens, and lymph nodes were depleted of erythrocytes by hypotonic lysis. Cells were incubated with specific antibodies for 15 min on ice in the presence of anti-FcγR to block FcγR binding. Dead cells were excluded by DAPI (Invitrogen) staining. To determine cytokine expression, cells were stimulated with 50 ng/mL phorbol 12-myristate 13-acetate (Sigma) and 1 μM ionomycin (Sigma) in the presence of GolgiStop (BD Biosciences) for 4 h. After stimulation, cells were stained with cell-surface marker antibodies and LIVE/DEAD Fixable dye (Invitrogen) to exclude dead cells, fixed, and permeabilized with a transcription factor staining kit (eBioscience), followed by staining with cytokine antibodies. All samples were acquired with an LSR II flow cytometer (Becton, Dickinson) and analyzed with FlowJo software (TreeStar).
CD62L^+CD44^−CD25^−CD4^+ T cells were isolated from spleen and peripheral lymph nodes of wild-type (WT) or CD4^CreLdha^fl/fl (KO) mice with naïve CD4^+ T cells isolation kits (Miltenyi or Stem Cell). Purity was checked by flow cytometry, and was over 98%. For in vitro T cell activation, 0.2-0.5×10^6 naïve CD4^+ T cells were cultured on a 24-well plate pre-coated with 5 μg/mL anti-CD3 in T cell medium [RPMI/1640, 10% fetal bovine serum, 2 mM glutamine, 1 mM sodium pyruvate, 1× non-essential amino acid (Invitrogen), 10 mM HEPES, 55 μM 2-mercaptoethanol, 100 U/ml penicillin, […]] supplemented with 2 μg/mL anti-CD28 and 100 U/ml IL-2. For T helper 1 (Th1) cell differentiation, T cells were cultured with the addition of 10 μg/mL anti-IL-4 and 10 ng/mL IL-12. For T helper 17 (Th17) cell differentiation, T cells were cultured with the addition of 10 μg/mL anti-IL-4, 10 μg/mL anti-IFN-γ, 10 μg/mL anti-IL-2, 2 ng/ml TGF-β, 10 ng/ml IL-6, 10 ng/ml IL-23, and 10 ng/mL […]. For cell proliferation experiments, naïve CD4^+ T cells were labeled with CFSE (Invitrogen), and activated on a 24-well plate, pre-coated with 5 μg/mL anti-CD3, in T cell culture medium supplemented with 2 μg/mL anti-CD28 and 100 U/mL IL-2. CFSE dilution was assessed by flow cytometry on days 1, 2, and 3 post-activation. For sodium acetate and TSA treatment experiment, cells were differentiated under Th1 conditions for 3 days, and cultured in T cell medium supplemented with 100 U/mL IL-2, 10 μg/mL anti-IL-4, 10 ng/mL IL-12, and the indicated concentrations of sodium acetate (Sigma), TSA (Promega), or […] for 24 h. For ATP citrate lyase (ACL) inhibitor experiments, naïve CD4^+ T cells isolated from WT mice were cultured under Th1 conditions for 2 days or under Th17 conditions for 3 days. […]

[2] = tested on: experimental autoimmune encephalomyelitis (EAE); assay: Experimental autoimmune encephalomyelitis (EAE), mouse model of multiple sclerosis; assay type: in vivo; conditions: WT mice, MOG peptide with CFA; 35 mg/kg/day intraperitoneally daily from day 7
Protocol: In panels A-C, naïve WT or LDHA-deficient (KO) CD4^+ T cells were differentiated under Th17 conditions for 3 days. Cells were re-stimulated with PMA/ionomycin for 4 h. […] Data represent mean±SD, n=2. Two-tailed unpaired t-test, **P≤0.01. […] In panels D-F, WT or KO mice were subjected to EAE induction by immunization with MOG peptide with CFA. Clinical scoring in panel D: 0, no overt signs of disease; 1, limp tail; 2, partial hind-limb paralysis; 3, total hind-limb paralysis; 4, hind-limb paralysis and 75% body paralysis; 5, complete body paralysis, or moribund state, or death by EAE, or sacrifice for humane reasons. […] IL-17a and IFN-γ protein expression were examined by flow cytometry. Panel F is quantification of panel E; data represent mean±SD, n=4. Two-tailed unpaired t-test, ***P≤0.001. […] Naïve WT or KO CD4^+ T cells were differentiated under Th17 conditions for 3 days, and BMS 303141 was included in the culture for another 24 hours. Cells were re-stimulated with PMA/ionomycin for 4 h. IL-17a protein expression was examined by flow cytometry. […] WT mice were subjected to EAE induction by immunization with MOG peptide with CFA. BMS 303141 (35 mg/kg/day) was intraperitoneally injected daily, starting from day 7. Clinical scoring was the same as in panel D.

[3] = tested on: CD4+ T cells differentiated under Th17 conditions; assay: IL-17a expression in CD4+ T cells differentiated under Th17 conditions (flow cytometry); assay type: cell-based, mouse
Protocol: Naïve WT or LDHA-deficient (KO) CD4^+ T cells were differentiated under Th17 conditions for 4 days. Increasing doses of GNE-140 were also included in the WT T cell culture. Cell viability was determined by a live/dead cell dye, and the percentage of live cell population is shown. In addition, cells were re-stimulated with PMA/ionomycin for 4 h. IL-17a and Foxp3 protein expression was examined by flow cytometry, and used as readouts for Th17 and Treg cell differentiation, respectively.
In panels A-C, naïve WT or LDHA-deficient (KO) CD4^+ T cells were differentiated under Th17 conditions for 3 days. Cells were re-stimulated with PMA/ionomycin for 4 h. […] Data represent mean±SD, n=2. Two-tailed unpaired t-test, **P≤0.01. […] In panels D-F, WT or KO mice were subjected to EAE induction by immunization with MOG peptide with CFA. […] Panel F is quantification of panel E; data represent mean±SD, n=4. […]
Naïve CD4 T cells (2.5×10^4) were isolated from spleen and peripheral lymph nodes of Ldha^fl/fl (WT) and CD4^CreLdha^fl/fl (KO) mice. […] Cytokines and transcription factors were analyzed by flow cytometry.
Cells from thymi, spleens, and lymph nodes were depleted of erythrocytes by hypotonic lysis. […] All samples were acquired with an LSR II flow cytometer (Becton, Dickinson) and analyzed with FlowJo software (TreeStar). […]

[4] = tested on: CD4CreLdhafl/fl (KO) CD4+ T cells differentiated under Th1 conditions; conditions: 20 mM sodium acetate for 24 h
Protocol: In panels A-D, naïve CD4^+ T cells isolated from wild-type (WT) mice were differentiated under Th1 conditions for 2 days. DMSO or the ATP citrate lyase inhibitor (ACLi) BMS-303141 was added to the culture for another 24 h. Subsequently, cells were re-stimulated with phorbol myristate acetate (PMA) and ionomycin for 4 h. IFN-γ expression was determined by intracellular staining. […] Cell viability was determined by LIVE/DEAD staining. […] Data represent mean±SD, n=3. Two-tailed unpaired t-test, *P≤0.05; **P≤0.01; ns, not significant. […] Acetyl-CoA levels were measured by an acetyl-CoA assay kit. Data represent mean±SD, n=3. Two-tailed unpaired t-test, **P≤0.01. […] The expression of T-bet was determined by flow cytometry. Panels G and H show naïve CD4^+ T cells isolated from WT or KO mice, differentiated under Th1 conditions for 3 days. […] The expression of IFN-γ (panel G) and T-bet (panel H) were determined by flow cytometry. […]
For measurement of cytosolic acetyl-CoA, naïve CD4^+ T cells were differentiated under Th1 conditions for 2 days and then cultured in fresh T cell medium for another 24 h. […] Freshly isolated naïve WT and KO CD4^+ T cells were rested in T cell medium with 10 ng/mL IL-7 for 4 h at 37° C. in the incubator, and the level of acetyl-CoA was measured.

[5] = tested on: H3K9Ac at the Ifng locus; assay: H3K9Ac at the Ifng promoter and CNS22 enhancer regions by ChIP-qPCR; assay type: cell-based, mouse; conditions: KO Th1 cells, 20 mM sodium acetate or 30 nM TSA for 24 h; normalized to Cd3e promoter
Protocol: Enrichment was normalized to H3K9Ac at the Cd3e promoter region. […] Cells were subsequently re-stimulated with phorbol myristate acetate (PMA) and ionomycin for 4 h.
In panels A-D, naïve CD4^+ T cells isolated from wild-type (WT) mice were differentiated under Th1 conditions for 2 days. […] Subsequently, cells were re-stimulated with phorbol myristate acetate (PMA) and ionomycin for 4 h. IFN-γ expression was determined by intracellular staining. […] Cell viability was determined by LIVE/DEAD staining. […] Data represent mean±SD, n=3. Two-tailed unpaired t-test, *P≤0.05; **P≤0.01; ns, not significant. […] Acetyl-CoA levels were measured by an acetyl-CoA assay kit. Data represent mean±SD, n=3. Two-tailed unpaired t-test, **P≤0.01. […] The expression of T-bet was determined by flow cytometry. Panels G and H show naïve CD4^+ T cells isolated from WT or KO mice, differentiated under Th1 conditions for 3 days. […] The expression of IFN-γ (panel G) and T-bet (panel H) were determined by flow cytometry. […]
Chromatin immunoprecipitations were performed with SimpleChIP Enzymatic Chromatin IP Kit (Cell Signaling) according to manufacturer's instructions. […] The relative abundance of precipitated DNA fragments was analyzed by qPCR using Power SYBR Green PCR Master Mix (Qiagen) and the enrichments were normalized to Cd3e promoter.

[6] = tested on: CD4+ T cells differentiated under Th1 conditions; assay: T-bet expression in Th1 cells by flow cytometry; assay type: cell-based, mouse; conditions: WT or KO Th1 cells, 20 mM sodium acetate or 30 nM TSA for another 24 h
Protocol: as §1, §2
CD62L^+CD44^−CD25^−CD4^+ T cells were isolated from spleen and peripheral lymph nodes of wild-type (WT) or CD4^CreLdha^fl/fl (KO) mice with naïve CD4^+ T cells isolation kits (Miltenyi or Stem Cell). […] CFSE dilution was assessed by flow cytometry on days 1, 2, and 3 post-activation. […]

| Compound | IFN-γ expression [1] | IFN-γ expression in KO T cells [1] | H3K9Ac in the Ifng locus [5] | T-bet expression [6] | further results |
| --- | --- | --- | --- | --- | --- |
| COc1ccc(-c2ccccc2)cc1NS(=O)(=O)c1cc(Cl)cc(Cl)c1O [BMS 303141, 3,5-dichloro-2-hydroxy-N-(4-methoxy[1,1′-biphenyl]-3-yl)-benzenesulfonamide] | suppresses IFN-γ expression | – | – | – | protection from EAE (clinical scoring) [2]: completely protected mice from EAE; IL-17a production ([3]; Th17 conditions for 3 days, BMS 303141 in the culture for another 24 hours, PMA/ionomycin 4 h): repressed IL-17a production |
| CC(=O)[O-].[Na+] [Acetate, sodium acetate] | – | corrected IFN-γ expression in KO T cells | normalization of H3K9Ac in Ifng promoter and enhancer regions | without affecting T-bet expression | acetyl-CoA production [4]: augmented acetyl-CoA production |
| O=C1N[C@](c2ccc(N3CCOCC3)cc2)(c2ccsc2)CC(O)=C1Sc1ccccc1Cl [GNE-140, (2R)-5-(2-chlorophenyl)sulfanyl-4-hydroxy-2-(4-morpholin-4-ylphenyl)-2-thiophen-3-yl-1,3-dihydropyridin-6-one] | – | – | – | – | IL-17A expression ([3]; WT T cells under Th17 conditions with APCs, 0.3, 10 or 30 μM GNE-140, harvested day 4, PMA/ionomycin 4 h): inhibited IL-17A expression in WT T cells in a dose-dependent manner |
| CCCc1c(O)c(O)c(C(=O)O)c2cc(Cc3ccccc3)c(C)cc12 [FX11] | dose-dependently inhibited IFN-γ expression | – | – | – | inhibitory effect on IFN-γ expression when supplementing cells with acetate ([1]; WT Th1 cells, FX11 for 24 h with 20 mM sodium acetate): fully nullified |
| CC(/C=C/C(=O)NO)=C\[C@@H](C)C(=O)c1ccc(N(C)C)cc1 [TSA] | – | rectified IFN-γ expression in KO T cells | increased H3K9Ac in the Ifng locus | without affecting T-bet expression | – |
